Experimental findings from paper PMC4992173, “Divergent synthesis and identification of the cellular targets of deoxyelephantopins” (Nature Communications, 2016) are described below.

For the test, the system named is MCF7 cells. Kind of test: Caspase activation (FITC-VAD-FMK), Annexin V and propidium iodide staining. The class given is cell-based, human. Particulars: 20 μM, 8 h. As to the method:
We began our biological investigations by assaying the cytotoxicity of natural deoxyelephantopin (DEP) and its unnatural analogues in four different cancer cell lines (Fig. 5a, Supplementary Figs 6–8).
Figure 5 Assessing the cytotoxicity of deoxyelephantopin (DEP) and analogues. (a) Cell viability measurements in four different cancer cell lines. Cells were treated with compounds for 3 days, the nuclei were stained with DAPI and counted (EC50 values±s.d. shown; n=3). **P<0.005 and ***P<0.0005 by two-sided Student's t-test. (b) Detection of caspase activation and apoptosis in MCF7 cells using FITC-VAD-FMK fluorescent probe (top) or Annexin V staining (bottom). The cells were treated with 1 μM staurosporine (positive control) or 20 μM deoxyelephantopin for 8 h. Confocal microscopy images are shown. EC50, effector concentration for half-maximum response. Scale bars, 30μm. […]
Biological materials. […] Protein concentration was determined using the Bradford assay (Bio-Rad).
Cell culture and preparation of lysates. […] Cells were lysed by sonication to form cell lysates and protein concentration was determined using the Bradford […]
’ cells/mL and HeLa: 1 ’ cells/mL) in a 96-well plate and allowed to attach overnight. […] Cells were imaged using a SpectraMax i3 plate reader equipped with a SpectraMax MiniMax imaging cytometer (Molecular Devices). […]
Caspase activity labeling for fluorescence cell imaging. […]

Structures are written as SMILES.

In the case of `C=C(C)C(=O)O[C@H]1CC2=C[C@@H](C/C(C)=C/[C@H]3OC(=O)C(=C)[C@H]13)OC2=O` [deoxyelephantopin], the “cause of cell death (FITC-VAD-FMK, Annexin-V-FLUOS staining)” value is listed as “caspase-mediated apoptosis” and the “necrotic death (propidium iodide staining)” value is reported as “did not indicate any significant necrotic death”.
